Results as given in article PMC12040169 (PLOS Biology, 2025).

Assay: in vitro
Conditions: human, hela cells, % viability

Compound | viability at 28.5 h, 10 µM [%]
COc1cccc2sc(Nc3nc(-c4cccs4)cs3)nc12 [CBK287469] | 82.8
COC(=O)c1cccc2c1CCCN2Cc1nnc(C2CC2)o1 [CBK304868] | 90.2
COc1ccc(OC)c(N/C=C(/C#N)c2nc(-c3cc4c(ccc5ccccc54)oc3=O)cs2)c1 [CBK262991] | 109
COc1ccc(-c2cc(=O)[nH]c(SCC(=O)Nc3ccc(C)cc3)n2)cc1 [CBK091867] | 95.8
Cc1cnc(CNC(=O)N2CCN(c3ccccc3)CC2)cn1 [CBK155174] | 101
CN(C)CCN(C)[C@H]1CCCC[C@@H]1N(C)C(=O)Cc1ccc(Br)cc1 [CBK023819C] | 93.4
CO[C@H]1CC[C@H](C(=O)N2C3CCC2CC(O)(c2ccco2)C3)CC1 (stereo partly shown) [CBK284107] | 96.7
CN(C)CCNCCP(=O)(c1ccccc1)c1ccccc1 [CBK263049] | 104
O=c1[nH]c(CN2CCCCCCC2)nc2ccccc12 [CBK283205] | 117
O=[N+]([O-])c1ccc(S(=O)(=O)Nc2nnc(C3CCCCC3)s2)cc1 [CBK200049] | 94.8
Cn1cnnc1SC1c2cccc3cccc(c23)C1NS(=O)(=O)c1ccc(Cl)cc1 (stereo not shown) [CBK264707] | 98.2
NC(=O)C1CCN(CC(=O)Nc2cc(C(F)(F)F)ccc2Cl)CC1 [CBK269776] | 100
COc1ccc(CN2CCCN(c3cc(OC4CCCCC4)ncn3)CC2)cc1 [CBK083278T] | 107
CC(Oc1cccc(C#N)c1)C(=O)N1CCCC1C(=O)NCC(F)(F)F (stereo not shown) [CBK305435] | 93.8
O=C(Nc1ccc(Cl)cc1)Nc1cc(S(=O)(=O)N2CCCC2)ccc1Cl [CBK266122] | 98
CC(=O)Nc1cccc(NCc2csc(C3CCCC3)n2)c1 [CBK304874] | 110
O=c1cc(-c2ccccc2)nc(N2CCOCC2)[nH]1 [CBK003840] | 93.9
COc1cccc(NC(=S)NCCc2ccccn2)c1 [CBK265245] | 96.9
Cc1nn(-c2ccc3nnc(C)n3n2)c2c1C(c1ccccc1F)CC(=O)N2 (stereo not shown) [CBK287898] | 83.3
CCc1cccc(C)c1NC(=O)CN(c1cccc(Cl)c1Cl)S(=O)(=O)c1ccc(C)cc1 [CBK268666] | 84.7
Cc1cccc2c3c([nH]c12)C1(CCN(CC2CC2)C1)NCC3 (stereo not shown) [CBK039520] | 95.8
COc1ccc(CNC(=O)NC(=O)C2CCN(C(C)=O)CC2)c(OC)c1 [CBK034839] | 96.9

Compound | viability at 28.5 h, 10 µM [%]
O=C(O)CNC(=O)CCS(=O)(=O)c1ccc(F)cc1 [CBK286580] | 86.1
O=C(O)Cn1c2ccc(Br)cc2c2nc3ccccc3nc21 [CBK266416] | 97.1
Cc1ccc(C)c2c(C)c(C(=O)N3CCC(O)C(C)C3)[nH]c12 (stereo not shown) [CBK282527] | 97.4
O=c1[nH]cc(S(=O)(=O)Nc2ccccc2)c(=O)[nH]1 [CBK287703] | 93.5
O=C1CCC(=O)N1CCOc1nccnc1OC1CCN(CCc2ccc3ccccc3c2)CC1 [CBK084358] | 99.4
CC(C)(C)C(=O)N1CCCC(c2cc3cccnc3[nH]2)C1 (stereo not shown) [CBK284945] | 102
COc1ccccc1OCc1cc(C)c(C(=O)N2CCN(C)CC2c2ccccc2)o1 (stereo not shown) [CBK286273] | 89.3
CC(=O)Nc1ccc2n(c1=O)C[C@H]1C[C@@H]2CN(C(=O)COc2ccccc2)C1 [CBK289074] | 89
Nc1ncc(-c2ccncc2)nc1-c1ccc(C=O)cc1 [CBK064102] | 106
Cc1ccccc1Nc1nc(N)nc(CN2CCCC2)n1 [CBK306152] | 102
O=C(NCc1ccc([N+](=O)[O-])cc1)c1cccnc1NCc1ccc2c(c1)OCO2 [CBK153436] | 98.6
COc1ccccc1CCCNC(=O)c1ccc(=O)n(C)c1 [CBK282636] | 82.7
C[C@H]1CN2CCCC2CN1Cc1cccc(F)c1F (stereo partly shown) [CBK285454] | 111
CC(C)CNc1nccnc1-c1ccc2c(c1)OCO2 [CBK088730] | 98.4
O=C(CN1CCC(C(O)C(=O)NC2CC2)CC1)Nc1cc(Cl)ccc1F (stereo not shown) [CBK305477] | 93.4
COc1ccc2c(CC(=O)Nc3cccc(-c4csc(C)n4)c3)coc2c1 [CBK295149] | 94
Cc1nonc1-c1csc(CC(C)n2cc(Cl)cn2)n1 (stereo not shown) [CBK304704] | 92.2
Cc1ccc(C(=O)C(OC(=O)COc2ccccc2C)c2ccccc2)cc1C (stereo not shown) [CBK265512] | 85.3
CCN(CC)CCCNC(=O)N(CCC#N)C1CCCCC1 [CBK156377] | 95
NC(=O)CN1CCC(C(=O)c2ccc(F)cc2)CC1 [CBK149130] | 96.6
CCOc1cc(C2Nc3ccccc3NC3=C2C(=O)C(C(=O)OC)C(C)C3)ccc1OC(C)C (stereo not shown) [CBK268456] | 111
O=[N+]([O-])c1ccc(-c2ccc(/C=N/Nc3nnc4c(n3)[nH]c3ccccc34)o2)cc1 [CBK262029] | 90.4

Compound | viability at 28.5 h, 10 µM [%]
CN(C)c1ccc(/C=N/N=C2\NC(=O)CS2)cc1 [CBK019273] | 60.6
O=C(COc1ccccc1)N1CCC(c2cc3cnccc3[nH]2)CC1 [CBK283449] | 97.6
CC(=O)c1ccc(-c2nc(NS(C)(=O)=O)cc3cccnc23)cc1 [CBK061874] | 96.3
Cc1cc(CNC(=O)COc2cc(Cl)ccc2Cl)c2ccccc2n1 [CBK269788] | 89.1
CC(Cc1ccccn1)NC(=O)Cn1ccnc1 (stereo not shown) [CBK282069] | 104
CCOc1ccc(C(=O)N2CCN(S(=O)(=O)c3ccc(C)cc3C)CC2)cn1 [CBK298313] | 93.3
O=C(CCS(=O)(=O)c1ccccc1)Nc1cc2ccccc2c(N2CCNCC2)n1 [CBK028419T] | 88.1
CC(C)CN1CCC(C(=O)NC(c2ccc(Cl)cc2)c2cnccn2)CC1 (stereo not shown) [CBK148026] | 96.6
CCc1nnc(N/N=C/c2cc(Cl)c(OCc3ccccc3F)c(OC)c2)n1N [CBK278282C] | 85.4
COc1ccc(-c2ccc(OC)cc2C(=O)Nc2ccc3c(c2)OCC(=O)N3)cc1 [CBK285821] | 101
CCNC(=O)O[C@@H]1CO[C@H]2[C@@H]1OC[C@@H]2NC(=O)c1ccc(C)cc1 [CBK289472] | 106
O=C(CCN1C(=O)COc2ccccc21)Nc1ccnn1Cc1ccccc1Br [CBK296740] | 99.8
O=C(Nc1ccc(Cl)cc1C(=O)NCCN1CCOCC1)c1ccc(Cl)cc1Cl [CBK265749] | 105
CSCCC(=O)N1CCCC2(CCN(C(=O)c3cc(F)c(F)cc3F)C2)C1 (stereo not shown) [CBK131557] | 93.7
Cn1cc(CNCC2CCCN2c2cccnn2)c(-c2cccnc2)n1 (stereo not shown) [CBK305326] | 96.2
CCOC(=O)c1sc2nc(C)cc(C)c2c1N [CBK097355] | 82.9
Cn1nc(C2CCN(C(=O)c3cccs3)CC2)c2cccnc21 [CBK284925] | 82.9
NC(=O)c1ccc(NC(=O)N2CCN(CCN3CCOCC3)CC2)cc1 [CBK155831] | 81.6
Nc1cc(O)nc(SCC(=O)N2CCN(c3ccccc3)CC2)n1 [CBK267925] | 86
Cc1ccc(-c2cc(-c3ccccc3O)nc(N/N=C/c3cccnc3)n2)cc1 [CBK262308] | 85.2
O=C(c1cc[nH]n1)N1CCC(c2cc3ccccc3cn2)CC1 [CBK284892] | 91.7
CCOC(=O)NC(=O)CSc1nnc(C2COc3ccccc3O2)n1-c1ccccc1 (stereo not shown) [CBK297884] | 88.9

Compound | viability at 28.5 h, 10 µM [%]
Cn1c(Cc2csc(N)n2)nnc1SCC(=O)NC1CCCCC1 [CBK268787] | 84.3
CCC(C)CC(=O)NS(=O)(=O)c1cc(C#N)ccc1C (stereo not shown) [CBK306487] | 88.1
O=C(O)CSc1ncnc2ccccc12 [CBK262069] | 94.4
Fc1cc(Br)c(CNCc2cocn2)c(N2CCCCC2)c1F [CBK304792] | 86.8
CCN1C(=O)c2ccccc2C(=O)[C@@]2(C)CN(C(=O)C(C)C)C[C@@H]12 [CBK281680] | 91.8
O=C(O)Cn1nc(-c2ccccc2)c2ccccc2c1=O [CBK287249] | 88
O=C(Nc1ccc(Cl)cc1)N1CCC(n2c(=O)[nH]c3ccccc32)CC1 [CBK149850] | 98.5
O=C(CN(C(=O)CNC(=O)c1cccs1)c1cccc(C(F)(F)F)c1)NC1CCCCC1 [CBK084697] | 94.5
Cc1cc(C[C@@H]2COC[C@H]2NCc2ccc(Cl)c(Cl)c2)on1 [CBK285400] | 88
CC(CCCC(C)(C)O)NS(=O)(=O)c1ccc(-c2ccon2)s1 (stereo not shown) [CBK062466] | 93.8
Cc1cc(NC(=O)c2cccc(C(F)(F)F)c2)nc2c1c(=O)oc1ccccc12 [CBK291163] | 101
CSC(C)CCN1CCn2nc(CNc3cnccn3)cc2C1 (stereo not shown) [CBK307376] | 95.5
COc1cncc(-c2cnc(N)c(NCc3cccnc3)n2)c1 [CBK063531] | 110
O=C(O)c1cccnc1SC1CC(=O)N(c2ccc([N+](=O)[O-])cc2)C1=O (stereo not shown) [CBK263079] | 100
O=C1CCC(=O)N1CCOc1nccnc1OC1CCN(Cc2ccc(C(F)(F)F)cc2)CC1 [CBK084341] | 96
O=C(Nc1cccc(S(=O)(=O)N2CCOCC2)c1)c1cc(-c2cccnc2)nc2ccc(Cl)cc12 [CBK267720] | 98
CC(=O)Nc1ccc(OC(=O)CSc2nc(C)cc(-c3ccccc3)n2)cc1 [CBK268754] | 94.7
O=C(/C=C/c1cccnc1)Nc1cncc(OC2CCNCC2)n1 [CBK038919T] | 96.9
O=S(=O)(NCc1ccccn1)c1ccc(Cl)c(Cl)c1Cl [CBK263978] | 95.6
CSc1nnc(CC2CCN(C(=O)c3ccc(C)cc3F)CC2)n1C [CBK306939] | 105
CC(=O)NCC(=O)N1CCC[C@@H]2[C@H]1CCCCc1ccccc1OCC(=O)N2C [CBK292011] | 117
c1ccc(CCCN2CCN(Cc3cccc4ccccc34)CC2)cc1 [CBK264237] | 103
